Patent US20050267076A1 (priority 2004, published 2005)
Like-named read-outs stand apart in the source and are kept apart here.

Experiments:
rats = type: in vivo, rat; conditions: for performance in the object recognition task: vs saline; for Recognition Score: saline 61%
Procedure: The experimental protocol is as follows:
[…]. Both drugs were administered by intraperitoneal (IP) injection. […].

Long-Evans rats = test: 8 hour retention test on a twelve-arm radial maze (spatial memory); type: in vivo, rat; conditions: vs vehicle, t(11)=2.69, p<0.02
Procedure: 12-arm maze test: Behavioral testing was conducted by an experimenter who was blind to drug treatment. 12 Long-Evans rats trained to use a win-shift strategy were given an information trial. During the information trial, 5 of the 12 arms of the 12 arm maze were blocked so that rats were not able to consume food from those blocked arms but could obtain food from each of the 7 open arms. After this session rats were moved to their home cage and placed back in the animal holding room. […] A retroactive memory error is made when the rat enters an arm that was […] on the information trial.
12 rats (divided into three groups) were used in the experiment. Sixty minutes prior to the information session, the rats were injected intraperitoneally (IP) with 150 mg/kg ABPA (Saegis Pharmaceuticals, Inc.), 3 mg/kg donepezil, or combination of 150 mg/kg ABPA and 3 mg/kg donepezil. Physiological saline (NaCl) was used as vehicle. Treatment order was counterbalanced among three groups such that each group (N=4) received a different order of vehicle, ABPA, donepezil, and ABPA+donepezil injection across days, for a total of three tests for each treatment in all subjects.

humans = conditions: cited from earlier work
[1] = in vivo; cited from earlier work
[2] = cited from earlier work

| Structure (SMILES) | performance in the object recognition task (rats; donepezil 1.7 mg/kg IP 30 min prior to information trial) | Recognition Score (rats; donepezil alone at 0.56 mg/kg) | Recognition Score (rats; donepezil alone at 1 mg/kg) | retention test performance on the 12-arm maze (Long-Evans rats; 3 mg/kg donepezil IP 60 min prior to information session) | cognitive effect in Alzheimer's Disease patients (humans; Barner and Gray, 1998, Rogers and Friedhoff) | side effect profile in humans (humans; human, in vivo) | performance in the object recognition task (rats; ABPA 3 and 30 mg/kg IP 30 min prior to information trial, delay of 6 hours) | performance in the object recognition task (rats; ABPA 10, 100, 170, and 300 mg/kg IP 30 min prior to information trial, delay of 6 hours) | Recognition Score (rats; ABPA alone at 3 mg/kg) | Recognition Score (rats; ABPA alone at 10 mg/kg) | retention test performance on the 12-arm maze (Long-Evans rats; 150 mg/kg ABPA IP 60 min prior to information session) | blood brain barrier crossing [1] | water solubility [2] |
| --- | --- | --- | --- | --- | --- | --- | --- | --- | --- | --- | --- | --- | --- |
| COc1cc2c(cc1OC)C(=O)C(CC1CCN(Cc3ccccc3)CC1)C2 (racemic) [donepezil, (±)-2,3-dihydro-5,6-dimethoxy-2-[[1-(phenylmethyl)-4-piperidinyl]methyl]-1H-inden-1-one, reference compound] | significantly improved performance | 62% | 63% | improved performance | slight cognitive improvements | cholinergic side effect profile | – | – | – | – | – | – | – |
| CCCCP(=O)(O)CCCN [ABPA, 3-aminopropyl-(n-butyl)-phosphinic acid] | – | – | – | – | – | – | no beneficial effect | significantly enhanced performance | 61% | 70% | improved performance | readily crosses the blood brain barrier | highly water-soluble |
